Here are results for eight compounds from PubChem BioAssay (NCI).

SMILES strings stand for the structures.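 Tested at 5 concentrations; 48 h exposure; 96-well plates; endpoints linearly interpolated, else capped at highest concentration. The concentration for full growth arrest is given as TGI.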 Where a SMILES comes first, the peptide text is derived from it.

Test systems include K-562 leukemia; OVCAR-4 ovarian; HS 578T breast; HCT-15 colon; OVCAR-8 ovarian; TK-10 renal; UACC-62 melanoma; HT29 colon; COLO 205 colon; SK-OV-3 ovarian; LOX IMVI melanoma; EKVX NSCLC; HCC-2998 colon; M14 melanoma; T-47D breast; 786-0 renal; OVCAR-3 ovarian; SN12C renal; HL-60(TB) leukemia; SR leukemia.
What all share (test): NCI-60 cell line screen, 48 h

Turning to `CC(C)(C)OC(=O)CC(NC(=O)OC(C)(C)C)C(=O)NC(C(=O)O)C(O)c1ccccc1` (stereo not drawn), the TGI in the assay on K-562 leukemia, in the assay with OVCAR-4 ovarian, in the assay on HS 578T breast, in the assay on HCT-15 colon, with OVCAR-8 ovarian and with TK-10 renal was over 100 µM throughout. In addition, the TGI with UACC-62 melanoma, in the assay with HT29 colon, in the assay with COLO 205 colon, with SK-OV-3 ovarian, in the assay with LOX IMVI melanoma and in the assay on EKVX NSCLC was over 100 µM in each case. Besides, the TGI with HCC-2998 colon, with M14 melanoma, with T-47D breast, with 786-0 renal and in the assay with OVCAR-3 ovarian was over 100 µM each time.
On to `CC(=O)C1=C(C)N2C(=NC3=C(CCc4ccccc43)C2c2cccc(Br)c2)S1` (stereo not drawn), for which the TGI in the assay on SN12C renal, in the assay with OVCAR-4 ovarian, in the assay with HL-60(TB) leukemia, in the assay with HS 578T breast, in the assay on HCT-15 colon and with OVCAR-8 ovarian was over 100 µM each time. The TGI with UACC-62 melanoma, in the assay with HT29 colon, in the assay on COLO 205 colon, with SK-OV-3 ovarian, with LOX IMVI melanoma and in the assay with EKVX NSCLC was over 100 µM in each case. Besides, the TGI in the assay with HCC-2998 colon, in the assay with M14 melanoma, in the assay with T-47D breast, in the assay on 786-0 renal and in the assay with OVCAR-3 ovarian was over 100 µM in each case.
`COC(=O)/C(=N\NC(=S)NN)C(C(=O)OC)C(=O)C(=O)Nc1cccc(C(F)(F)F)c1` (stereo not drawn): the TGI in the assay on SN12C renal, in the assay on OVCAR-4 ovarian, with HL-60(TB) leukemia, with HS 578T breast, in the assay on HCT-15 colon and in the assay on OVCAR-8 ovarian was over 100 µM in each case. Moreover, the TGI in the assay on TK-10 renal, in the assay on UACC-62 melanoma, in the assay on HT29 colon, with SK-OV-3 ovarian, in the assay with LOX IMVI melanoma and in the assay with EKVX NSCLC was over 100 µM in each case. Also, the TGI in the assay on HCC-2998 colon, with M14 melanoma, with T-47D breast, with 786-0 renal and in the assay on OVCAR-3 ovarian was over 100 µM in each case.
With `CN(C)C(=S)N/N=C(\C(=N/NC(=S)N(C)C)c1ccccn1)c1ccccn1`, the TGI in the assay with K-562 leukemia was over 100 µM; in the assay with SN12C renal, 20.3 µM; in the assay with OVCAR-4 ovarian, 26.8 µM; in the assay with HS 578T breast, over 46 µM; with HCT-15 colon it was 31.6 µM; with OVCAR-8 ovarian it was 77.7 µM. Besides, the TGI is 22.2 µM with TK-10 renal; 32.8 µM with UACC-62 melanoma; 17.6 µM in the assay with HT29 colon; 24.2 µM in the assay on COLO 205 colon; 30.4 µM in the assay on SK-OV-3 ovarian; over 100 µM with LOX IMVI melanoma. Further, the TGI in the assay on EKVX NSCLC turned out to be 36.7 µM; in the assay on HCC-2998 colon, 37.5 µM; in the assay on M14 melanoma it was 42.3 µM; in the assay with T-47D breast it was 8.79 µM; in the assay with 786-0 renal, 27 µM; with OVCAR-3 ovarian, 14.6 µM.
For the compound `NC(=O)CCC(CCC(N)=O)(CCC(N)=O)[N+](=O)[O-]`, the TGI in the assay with SN12C renal, with HL-60(TB) leukemia, with HS 578T breast, with HCT-15 colon, in the assay with OVCAR-8 ovarian and in the assay with TK-10 renal was over 100 µM in each case. Besides, the TGI with UACC-62 melanoma, in the assay with HT29 colon, in the assay on COLO 205 colon, with SK-OV-3 ovarian, in the assay on EKVX NSCLC and with M14 melanoma was over 100 µM throughout. Moreover, the TGI in the assay on T-47D breast and with 786-0 renal was over 100 µM each time.
For the compound `CNC(=O)CNC(=O)C(NC(=O)CNC(=O)C1CCCN1C(=O)C(C)NC(=O)C(NC(C)=O)C(C)C)C(C)C` (stereo not drawn) (Ac-VAPGVG-NHMe; configuration not given here), the TGI with K-562 leukemia, in the assay on SN12C renal, in the assay on OVCAR-4 ovarian, in the assay on HL-60(TB) leukemia, in the assay with HCT-15 colon and with OVCAR-8 ovarian was over 100 µM throughout. Besides, the TGI in the assay with TK-10 renal, in the assay on UACC-62 melanoma, in the assay with HT29 colon, with COLO 205 colon, in the assay with SK-OV-3 ovarian and in the assay with LOX IMVI melanoma was over 100 µM each time. Also, the TGI in the assay on EKVX NSCLC, in the assay on HCC-2998 colon, in the assay with M14 melanoma, in the assay on T-47D breast, in the assay on 786-0 renal and in the assay with OVCAR-3 ovarian was over 100 µM in each case. The TGI in the assay on SR leukemia is over 100 µM.
For the compound `CC(CO)(CBr)COC(=O)c1cc(Br)c(N)c(Br)c1` (stereo not drawn), the TGI in the assay on K-562 leukemia, in the assay on SN12C renal, in the assay on OVCAR-4 ovarian, in the assay with HL-60(TB) leukemia, with HCT-15 colon and with OVCAR-8 ovarian was over 100 µM in each case. Further, the TGI in the assay on TK-10 renal, with UACC-62 melanoma, in the assay with HT29 colon, in the assay with COLO 205 colon, with SK-OV-3 ovarian and in the assay on LOX IMVI melanoma was over 100 µM each time. For the same compound, the TGI in the assay with EKVX NSCLC, in the assay on HCC-2998 colon, in the assay on M14 melanoma, in the assay with T-47D breast, with 786-0 renal and in the assay on OVCAR-3 ovarian was over 100 µM in each case. Moreover, in the assay with SR leukemia, the TGI is over 100 µM.
Consider `COCCN(CCOC)C(=O)COc1c2cc(C(C)(C)C)cc1Cc1cc(C(C)(C)C)cc(c1OCC(=O)N(CCOC)CCOC)Cc1cc(C(C)(C)C)cc(c1OCC(=O)N(CCOC)CCOC)Cc1cc(C(C)(C)C)cc(c1OCC(=O)N(CCOC)CCOC)Cc1cc(C(C)(C)C)cc(c1OCC(=O)N(CCOC)CCOC)C2`, for which the TGI in the assay with SN12C renal is 11.4 µM; in the assay on OVCAR-4 ovarian, 17.5 µM; in the assay on HCT-15 colon, 11.8 µM; with OVCAR-8 ovarian, 22.8 µM; in the assay with TK-10 renal it was 15 µM; in the assay on UACC-62 melanoma, 3.53 µM. Besides, the TGI in the assay on HT29 colon worked out at 8.13 µM; in the assay with COLO 205 colon it was 1.96 µM; with SK-OV-3 ovarian it was 14.6 µM; with LOX IMVI melanoma it was 8.92 µM; in the assay on EKVX NSCLC, 2.8 µM; in the assay with HCC-2998 colon, 18.3 µM. Further, the TGI in the assay on M14 melanoma worked out at 13 µM; in the assay with T-47D breast, 19.5 µM; in the assay on 786-0 renal, 12.2 µM; in the assay with OVCAR-3 ovarian, 10.2 µM; with SR leukemia, 3.63 µM.
